{"source": "the C3SDB collision cross section collection", "note": "Where “and” joins values, the source holds several entries; their conditions need not be identical. Equal values may be shown once.", "data": [{"conditions": "[M+H]+; instrument: TW; calibrated with polyalanine and drug standards", "values": [{"smiles": "CC(=O)OC1CC[C@@]2(C)C(CC[C@H]3[C@@H]4CC=C(C(C)=O)[C@@]4(C)C(=O)C[C@@H]32)C1", "note": "(stereo not given in full) [3-ACETOXYPREGN-16-EN-12,20-DIONE]", "collision cross section (N2)": "189.5 Å²"}, {"smiles": "COc1cc(O)ccc1C(C)=O", "note": "[ISOPEONOL]", "collision cross section (N2)": "128.6 Å²"}, {"smiles": "C=C[C@H]1CN2CC[C@H]1C[C@H]2[C@H](O)c1ccnc2ccccc12", "note": "[CINCHONIDINE]", "collision cross section (N2)": "168.2 Å²"}, {"smiles": "COP(=S)(OC)Oc1ccc(Sc2ccc(OP(=S)(OC)OC)cc2)cc1", "note": "[TEMEFOS]", "collision cross section (N2)": "203.3 Å² and 187.6 Å²"}, {"smiles": "O=C(/C=C/c1ccccc1)c1ccc(O)cc1", "note": "[4'-HYDROXYCHALCONE]", "collision cross section (N2)": "150.8 Å²"}, {"smiles": "COc1c2ccoc2c(OC)c2oc(=O)ccc12", "note": "[ISOPIMPINELLIN]", "collision cross section (N2)": "146.5 Å²"}, {"smiles": "CNc1ccccc1C(=O)O", "note": "[N-METHYLANTHRANILIC ACID]", "collision cross section (N2)": "125.9 Å²"}, {"smiles": "CC(C)OC(=O)C(C)(C)Oc1ccc(C(=O)c2ccc(Cl)cc2)cc1", "note": "[FENOFIBRATE]", "collision cross section (N2)": "190.5 Å²"}, {"smiles": "O=C(O)c1ccc2c(c1)OCO2", "note": "[PIPERONYLIC ACID]", "collision cross section (N2)": "124.5 Å²"}]}, {"conditions": "[M+Na]+; instrument: TW; calibrated with polyalanine and drug standards", "units": {"collision cross section (N2)": "Å²"}, "values": [{"smiles": "CC(=O)Oc1cc(OC(C)=O)c2c(c1)O[C@H](c1ccc(OC(C)=O)c(OC(C)=O)c1)[C@@H](OC(C)=O)C2", "note": "[CATECHIN PENTAACETATE]", "collision cross section (N2)": 206.6}, {"smiles": "CC(=O)N[C@H]1C(O)O[C@H](CO)[C@@H](O)[C@@H]1O[C@H](C)C(=O)O", "note": "(stereo not given in full) [N-ACETYLMURAMIC ACID]", "collision cross section (N2)": 164.8}, {"smiles": "CS(=O)(=O)c1ccc([C@@H](O)[C@@H](CF)NC(=O)C(Cl)Cl)cc1", "note": "[FLORFENICOL]", "collision cross section (N2)": 170.7}, {"smiles": "C/C=C(\\C)C(=O)O[C@H]1C[C@@H](OC(C)=O)[C@@]2(C(=O)OC)CO[C@H]3[C@@H](O)[C@@](C)([C@]45O[C@@]4(C)[C@H]4C[C@@H]5O[C@@H]5OC=C[C@@]54O)[C@H]4[C@]1(CO[C@]4(O)C(=O)OC)[C@@H]32", "note": "[AZADIRACHTIN]", "collision cross section (N2)": 241.4}, {"smiles": "OCc1ccccc1O[C@@H]1O[C@H](CO)[C@@H](O)[C@H](O)[C@H]1O", "note": "[SALICIN]", "collision cross section (N2)": 163.2}, {"smiles": "CC(=O)O[C@H]1C[C@@]2(C)[C@@H](C[C@@H](O)[C@H]3[C@@]4(C)CC[C@@H](O)[C@@H](C)[C@@H]4CC[C@@]32C)/C1=C(\\CCC=C(C)C)C(=O)O", "note": "[FUSIDIC ACID]", "collision cross section (N2)": 235.6}, {"smiles": "CO[C@H]1C[C@@H]2CC[C@@H](C)[C@@](O)(O2)C(=O)C(=O)N2CCCC[C@H]2C(=O)O[C@H]([C@H](C)C[C@@H]2CC[C@@H](O)[C@H](OC)C2)CC(=O)[C@H](C)/C=C(\\C)[C@@H](O)[C@@H](OC)C(=O)[C@H](C)C[C@H](C)/C=C/C=C/C=C/1C", "note": "[SIROLIMUS]", "collision cross section (N2)": 311.6}]}, {"conditions": "[M]+; instrument: TW; calibrated with polyalanine and drug standards", "units": {"collision cross section (N2)": "Å²"}, "values": [{"smiles": "C[N+]12CC[C@@]34c5ccccc5N5C(=O)CC6OCC=C(C1)[C@H](CC32)[C@@H]6C54", "note": "(stereo not given in full) [STRYCHNINE METHIODIDE]", "collision cross section (N2)": 175.2}]}, {"conditions": "[M+H]+; instrument: DT; single field, calibrated with ESI Low Concentration Tuning Mix (Agilent)", "values": [{"smiles": "NCC(N)C(=O)O", "note": "(stereo not given) [2,3-DIAMINOPROPIONATE]", "collision cross section (N2)": "138.1 Å²"}, {"smiles": "Nc1c(O)cccc1C(=O)O", "note": "[3-HYDROXYANTHRANILATE]", "collision cross section (N2)": "131.2 Å²"}, {"smiles": "NC(N)=NCC(=O)O", "note": "[GUANIDINOACETATE]", "collision cross section (N2)": "124.9 Å²"}, {"smiles": "Cn1cnc2c1c(=O)[nH]c(=O)n2C", "note": "[THEOBROMINE]", "collision cross section (N2)": "131.2 Å² and 136.9 Å²"}, {"smiles": "NC(CO)Cc1cnc[nH]1", "note": "(stereo not given) [HISTIDINOL]", "collision cross section (N2)": "128.7 Å²"}, {"smiles": "Nc1nc(=O)c2nc(CNc3ccc(C(=O)N[C@@H](CCC(=O)O)C(=O)O)cc3)cnc2[nH]1", "note": "[FOLATE]", "collision cross section (N2)": "196.2 Å²"}]}, {"conditions": "[M+Na-2H]-; instrument: DT; single field, calibrated with ESI Low Concentration Tuning Mix (Agilent)", "units": {"collision cross section (N2)": "Å²"}, "values": [{"smiles": "O=C(O)Cc1ccc(O)c(O)c1", "note": "[3,4-DIHYDROXYPHENYLACETATE]", "collision cross section (N2)": 139.9}, {"smiles": "Nc1nc(=O)c2nc(CNc3ccc(C(=O)N[C@@H](CCC(=O)O)C(=O)O)cc3)cnc2[nH]1", "note": "[FOLATE]", "collision cross section (N2)": 201.3}]}, {"conditions": "[M+Na]+; instrument: DT; single field, calibrated with ESI Low Concentration Tuning Mix (Agilent)", "units": {"collision cross section (N2)": "Å²"}, "values": [{"smiles": "NC(N)=NCC(=O)O", "note": "[GUANIDINOACETATE]", "collision cross section (N2)": 134.6}, {"smiles": "NC(CO)Cc1cnc[nH]1", "note": "(stereo not given) [HISTIDINOL]", "collision cross section (N2)": 131.9}, {"smiles": "Nc1nc(=O)c2nc(CNc3ccc(C(=O)N[C@@H](CCC(=O)O)C(=O)O)cc3)cnc2[nH]1", "note": "[FOLATE]", "collision cross section (N2)": 205.7}, {"smiles": "C[C@@](O)(CCO)CC(=O)[O-]", "note": "[MEVALONATE]", "collision cross section (N2)": 132.9}]}, {"conditions": "[M-H]-; instrument: DT; single field, calibrated with ESI Low Concentration Tuning Mix (Agilent)", "units": {"collision cross section (N2)": "Å²"}, "values": [{"smiles": "NCC(N)C(=O)O", "note": "(stereo not given) [2,3-DIAMINOPROPIONATE]", "collision cross section (N2)": 118.2}, {"smiles": "Nc1c(O)cccc1C(=O)O", "note": "[3-HYDROXYANTHRANILATE]", "collision cross section (N2)": 127.8}, {"smiles": "O=C(O)c1cccc(O)c1[O-]", "note": "[2,3-DIHYDROXYBENZOATE]", "collision cross section (N2)": 120.6}, {"smiles": "NC(CO)Cc1cnc[nH]1", "note": "(stereo not given) [HISTIDINOL]", "collision cross section (N2)": 127.5}, {"smiles": "Nc1nc(=O)c2nc(CNc3ccc(C(=O)N[C@@H](CCC(=O)O)C(=O)O)cc3)cnc2[nH]1", "note": "[FOLATE]", "collision cross section (N2)": 192}, {"smiles": "C[C@@](O)(CCO)CC(=O)[O-]", "note": "[MEVALONATE]", "collision cross section (N2)": 128.7}]}]}
